Experimental data published in ChEMBL document CHEMBL1201862, “PubChem BioAssay data set” (2004).
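A five-concentration, 48-hour dose response in 96-well plates underlies each endpoint, interpolated linearly between surrounding concentrations. The concentration for 50% growth inhibition is given as GI50.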 The source made the active and inactive calls. No stated cut-off is given here; in the data, active = GI50 up to about 1.1 µM and inactive = higher.

Columns and labels:
Assay in all cases: growth of human tumour cells (NCI), 48 h
[1] = test system: SK-MEL-2
[2] = test system: ACHN
[3] = test system: M19-MEL
[4] = test system: HOP-18
[5] = test system: XF498
[6] = test system: NCI-H460
[7] = test system: LXFL 529
[8] = test system: HL-60
[9] = test system: SNB-19
[10] = test system: KM-20L2
[11] = test system: A549
[12] = test system: EKVX
[13] = test system: SK-OV-3
[14] = test system: HOP-62
[15] = test system: HT-29
[16] = test system: OVCAR-5
[17] = test system: 786-0
[18] = test system: HCT-15
[19] = test system: MOLT-4
[20] = test system: SN12C
[21] = test system: RXF 393
[22] = test system: COLO 205
[23] = test system: SK-MEL-5
[24] = test system: UACC-257
[25] = test system: SW-620
[26] = test system: HCC 2998
[27] = test system: SNB-75
[28] = test system: NCI-H522
[29] = test system: RPMI-8226
[30] = test system: TK-10
[31] = test system: HCT-116
[32] = test system: SK-MEL-28
[33] = test system: OVCAR-4
[34] = test system: DMS-114
[35] = test system: IGROV-1
[36] = test system: M14
[37] = test system: CAKI-1
[38] = test system: SF-268
[39] = test system: NCI-H23
[40] = test system: KM12
[41] = test system: OVCAR-3
[42] = test system: CCRF-CEM
[43] = test system: U-251
[44] = test system: UO-31
[45] = test system: Malme-3M
[46] = test system: SF-295
[47] = test system: DLD-1
[48] = test system: OVCAR-8
[49] = test system: K562
[50] = test system: UACC-62
[51] = test system: SNB-78
[52] = test system: NCI-H226
[53] = test system: SR
[54] = test system: DMS-273
[55] = test system: SF-539
[56] = test system: LOX IMVI

**Q.** How did the GI50 [1] turn out when `O=C(Cc1ccccc1)NN1C(=O)C(Cl)C1c1ccccc1` (stereo not drawn) was run?
**A.** > 100 µM (inactive)

**Q.** What about the GI50 [2] of the same molecule?
**A.** > 100 µM (inactive)

**Q.** What about the GI50 [3] of the same molecule?
**A.** > 100 µM (inactive)

**Q.** And the GI50 [4]?
**A.** > 100 µM (inactive)

**Q.** What about the GI50 [5] of the same molecule?
**A.** 24.6 µM (inactive)

**Q.** What about the GI50 [6] of the same molecule?
**A.** > 100 µM (inactive)

**Q.** What about the GI50 [7] of the same molecule?
**A.** 20 µM (inactive)

**Q.** And the GI50 [8]?
**A.** 27.6 µM (inactive)

**Q.** And the GI50 [9]?
**A.** > 100 µM (inactive)

**Q.** And the GI50 [10]?
**A.** > 100 µM (inactive)

**Q.** And the GI50 [11]?
**A.** > 100 µM (inactive)

**Q.** And the GI50 [12]?
**A.** > 100 µM (inactive)

**Q.** And the GI50 [13]?
**A.** > 100 µM (inactive)

**Q.** What about the GI50 [14] of the same molecule?
**A.** > 100 µM (inactive)

**Q.** And the GI50 [15]?
**A.** > 100 µM (inactive)

**Q.** And the GI50 [16]?
**A.** > 100 µM (inactive)

**Q.** What about the GI50 [17] of the same molecule?
**A.** > 100 µM (inactive)

**Q.** What about the GI50 [18] of the same molecule?
**A.** > 100 µM

**Q.** And the GI50 [19]?
**A.** 23 µM (inactive)

**Q.** What about the GI50 [20] of the same molecule?
**A.** 35.9 µM (inactive)

**Q.** And the GI50 [21]?
**A.** 77.6 µM (inactive)

**Q.** What about the GI50 [22] of the same molecule?
**A.** > 100 µM (inactive)

**Q.** What about the GI50 [23] of the same molecule?
**A.** 74.1 µM (inactive)

**Q.** What about the GI50 [24] of the same molecule?
**A.** > 100 µM (inactive)

**Q.** What about the GI50 [25] of the same molecule?
**A.** > 100 µM (inactive)

**Q.** And the GI50 [26]?
**A.** > 100 µM (inactive)

**Q.** What about the GI50 [27] of the same molecule?
**A.** 55.7 µM (inactive)

**Q.** And the GI50 [28]?
**A.** 2.05 µM (inactive)

**Q.** And the GI50 [29]?
**A.** 18.7 µM (inactive)

**Q.** And the GI50 [30]?
**A.** > 100 µM (inactive)

**Q.** What about the GI50 [31] of the same molecule?
**A.** > 100 µM (inactive)

**Q.** And the GI50 [32]?
**A.** > 100 µM (inactive)

**Q.** And the GI50 [33]?
**A.** 39.1 µM (inactive)

**Q.** What about the GI50 [34] of the same molecule?
**A.** 33.9 µM (inactive)

**Q.** And the GI50 [35]?
**A.** 66.4 µM (inactive)

**Q.** And the GI50 [36]?
**A.** > 100 µM (inactive)

**Q.** And the GI50 [37]?
**A.** > 100 µM (inactive)

**Q.** And the GI50 [38]?
**A.** > 100 µM (inactive)

**Q.** What about the GI50 [39] of the same molecule?
**A.** 61.7 µM (inactive)

**Q.** And the GI50 [40]?
**A.** 66.4 µM (inactive)

**Q.** What about the GI50 [41] of the same molecule?
**A.** 37.2 µM (inactive)

**Q.** And the GI50 [42]?
**A.** 18.6 µM (inactive)

**Q.** What about the GI50 [43] of the same molecule?
**A.** > 100 µM (inactive)

**Q.** What about the GI50 [44] of the same molecule?
**A.** 88.7 µM (inactive)

**Q.** What about the GI50 [45] of the same molecule?
**A.** > 100 µM (inactive)

**Q.** And the GI50 [46]?
**A.** > 100 µM (inactive)

**Q.** What about the GI50 [47] of the same molecule?
**A.** > 100 µM (inactive)

**Q.** What about the GI50 [48] of the same molecule?
**A.** 79.3 µM (inactive)

**Q.** And the GI50 [49]?
**A.** 37.9 µM (inactive)

**Q.** And the GI50 [50]?
**A.** 77.4 µM (inactive)

**Q.** What about the GI50 [51] of the same molecule?
**A.** > 100 µM (inactive)

**Q.** What about the GI50 [52] of the same molecule?
**A.** > 100 µM (inactive)

**Q.** What about the GI50 [53] of the same molecule?
**A.** 18.3 µM (inactive)

**Q.** How did the GI50 [1] turn out when `COC(=O)c1ccc(OCc2ccc3oc(=O)c(-c4ccccc4)nc3c2)cc1` was run?
**A.** > 100 µM (inactive)

**Q.** And the GI50 [2]?
**A.** > 100 µM (inactive)

**Q.** What about the GI50 [3] of the same molecule?
**A.** > 100 µM (inactive)

**Q.** And the GI50 [4]?
**A.** > 100 µM (inactive)

**Q.** And the GI50 [5]?
**A.** 84.3 µM (inactive)

**Q.** And the GI50 [6]?
**A.** > 100 µM (inactive)

**Q.** What about the GI50 [8] of the same molecule?
**A.** 28.4 µM (inactive)

**Q.** What about the GI50 [9] of the same molecule?
**A.** > 100 µM (inactive)

**Q.** What about the GI50 [11] of the same molecule?
**A.** > 100 µM (inactive)

**Q.** And the GI50 [12]?
**A.** > 100 µM (inactive)

**Q.** What about the GI50 [14] of the same molecule?
**A.** > 100 µM (inactive)

**Q.** And the GI50 [15]?
**A.** > 100 µM (inactive)

**Q.** What about the GI50 [16] of the same molecule?
**A.** > 100 µM (inactive)

**Q.** What about the GI50 [17] of the same molecule?
**A.** 28.9 µM (inactive)

**Q.** And the GI50 [18]?
**A.** > 100 µM

**Q.** And the GI50 [19]?
**A.** 22.9 µM (inactive)

**Q.** And the GI50 [20]?
**A.** > 100 µM (inactive)

**Q.** What about the GI50 [54] of the same molecule?
**A.** > 100 µM (inactive)

**Q.** And the GI50 [22]?
**A.** 33.9 µM (inactive)

**Q.** What about the GI50 [23] of the same molecule?
**A.** > 100 µM (inactive)

**Q.** And the GI50 [24]?
**A.** > 100 µM (inactive)

**Q.** And the GI50 [25]?
**A.** 57.3 µM (inactive)

**Q.** What about the GI50 [26] of the same molecule?
**A.** > 100 µM (inactive)

**Q.** What about the GI50 [27] of the same molecule?
**A.** > 100 µM (inactive)

**Q.** And the GI50 [28]?
**A.** 33.6 µM (inactive)

**Q.** What about the GI50 [29] of the same molecule?
**A.** 34.9 µM (inactive)

**Q.** And the GI50 [30]?
**A.** 44 µM (inactive)

**Q.** And the GI50 [31]?
**A.** > 100 µM (inactive)

**Q.** And the GI50 [32]?
**A.** > 100 µM (inactive)

**Q.** What about the GI50 [55] of the same molecule?
**A.** > 100 µM (inactive)

**Q.** And the GI50 [33]?
**A.** > 100 µM (inactive)

**Q.** What about the GI50 [34] of the same molecule?
**A.** > 100 µM (inactive)

**Q.** And the GI50 [36]?
**A.** > 100 µM (inactive)

**Q.** And the GI50 [37]?
**A.** > 100 µM (inactive)

**Q.** And the GI50 [38]?
**A.** > 100 µM (inactive)

**Q.** What about the GI50 [39] of the same molecule?
**A.** 71.3 µM (inactive)

**Q.** And the GI50 [40]?
**A.** > 100 µM (inactive)

**Q.** What about the GI50 [41] of the same molecule?
**A.** 44.9 µM (inactive)

**Q.** What about the GI50 [42] of the same molecule?
**A.** 23.5 µM (inactive)

**Q.** What about the GI50 [43] of the same molecule?
**A.** > 100 µM (inactive)

**Q.** And the GI50 [44]?
**A.** > 100 µM (inactive)

**Q.** What about the GI50 [45] of the same molecule?
**A.** 59.2 µM (inactive)

**Q.** What about the GI50 [46] of the same molecule?
**A.** > 100 µM (inactive)

**Q.** What about the GI50 [47] of the same molecule?
**A.** 15.2 µM (inactive)

**Q.** What about the GI50 [48] of the same molecule?
**A.** > 100 µM (inactive)

**Q.** And the GI50 [56]?
**A.** > 100 µM (inactive)

**Q.** And the GI50 [49]?
**A.** 27.9 µM (inactive)

**Q.** What about the GI50 [51] of the same molecule?
**A.** > 100 µM (inactive)

**Q.** And the GI50 [52]?
**A.** > 100 µM (inactive)

**Q.** And the GI50 [53]?
**A.** 30.8 µM (inactive)
